pIC50: −log10 of the molar value. Like-named read-outs stand apart in the source and are kept apart here.
Key:
[1] = molecular target: T1, androgen receptor (AR) splicing variant AR-v7 (Homo sapiens, UniProt P10275); assay: Degradation activity on androgen receptor splicing variant AR-v7 in 22RV1 cells (ELISA); assay type: cell-based; conditions: AR-v7 degradation in 22RV1 cells, 48 h, class symbols
T1 construct: The degradation activity of compounds on AR-v7 in 22RV1 cells; host or cells: 22RV1 cells
T1 sequence (P10275 1-644 isoform P10275-3): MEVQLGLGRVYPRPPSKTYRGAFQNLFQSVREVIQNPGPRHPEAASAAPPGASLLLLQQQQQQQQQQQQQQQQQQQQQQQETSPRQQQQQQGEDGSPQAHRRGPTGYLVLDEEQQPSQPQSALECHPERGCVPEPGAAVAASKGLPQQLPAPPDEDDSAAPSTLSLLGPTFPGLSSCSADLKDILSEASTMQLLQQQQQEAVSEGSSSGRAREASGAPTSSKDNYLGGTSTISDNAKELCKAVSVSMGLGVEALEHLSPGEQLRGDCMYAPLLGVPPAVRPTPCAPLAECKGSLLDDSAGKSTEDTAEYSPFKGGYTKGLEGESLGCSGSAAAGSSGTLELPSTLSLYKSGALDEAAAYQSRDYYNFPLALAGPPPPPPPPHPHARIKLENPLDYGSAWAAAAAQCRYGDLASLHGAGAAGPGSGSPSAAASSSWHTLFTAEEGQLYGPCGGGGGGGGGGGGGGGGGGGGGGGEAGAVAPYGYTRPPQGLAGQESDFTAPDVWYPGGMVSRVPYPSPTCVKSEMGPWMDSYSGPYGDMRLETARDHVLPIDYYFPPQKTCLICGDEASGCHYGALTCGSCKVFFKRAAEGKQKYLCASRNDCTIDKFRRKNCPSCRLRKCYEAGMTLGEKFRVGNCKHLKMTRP

22RV1 cells = conditions: for IC50: Homo sapiens, 22Rv1, 144 h, read-out: 22RV1 IC50 (nM), 22RV1 cells, 6 days culture, CCK-8, OD 450 nm

Row | Compound | DC50 [1] [nM] | IC50 (22RV1 cells) [nM] | pIC50 (22RV1 cells; read-out: 22RV1 IC50, 22RV1 cells, 6 days culture, CCK-8, OD 450 nm)
1 | COc1nccc(COc2ccc(C(C)(C)c3ccc(OCCCNc4ccc5c(c4)C(=O)N(C4CCC(=O)NC4=O)C5=O)cc3)cc2)n1 (stereo not shown) [Example 68, 2-(2,6-dioxopiperidin-3-yl)-5-((3-(4-(2-(4-((2-methoxypyrimidin-4-yl)methoxy)phenyl)propan-2-yl)phenoxy)propyl)amino)isoindolin-1,3-dione] | 11 to 100 | 30 | 
2 | CC(C)(c1ccc(Oc2nncs2)cc1)c1ccc(O[C@H]2C[C@H](Nc3ccc4c(c3)C(=O)N(C3CCC(=O)NC3=O)C4=O)C2)cc1 (stereo partly shown) [Example 592] | < 10 | 8 | 
3 | CC(C)(c1ccc(Oc2cnc(C(N)=O)nc2)cc1)c1ccc(O[C@H]2C[C@H](Nc3ccc4c(c3)C(=O)N(C3CCC(=O)NC3=O)C4=O)C2)cc1 (stereo partly shown) [Example 265, 5-(4-(2-(4-((1r,3r)-3-((2-(2,6-dioxopiperidin-3-yl)-1,3-dioxoisoindolin-5-yl)amino)cyclobutyloxy)phenyl)propan-2-yl)phenoxy)pyrimidin-2-carbonylamine] | < 10 | 4 | 
4 | CC(C)(c1ccc(Oc2ccc(N3CC(N4CC(F)C4)C3)nn2)cc1)c1ccc(O[C@H]2C[C@H](Nc3ccc4c(c3)C(=O)N(C3CCC(=O)NC3=O)C4=O)C2)cc1 (stereo partly shown) [Example 258] | 101 to 1000 | 8 | 
5 | CC(O)c1nccc(COc2ccc(C(C)(C)c3ccc(OCCCNc4ccc5c(c4)C(=O)N(C4CCC(=O)NC4=O)C5=O)cc3)cc2)n1 (stereo not shown) [Example 345, 2-(2,6-dioxopiperidin-3-yl)-5-((3-(4-(2-(4-((2-(1-hydroxylethyl)pyrimidin-4-yl)methoxy)phenyl)isopropan-2-yl)phenoxy)propyl)amino)isoindolin-1,3-dione] | 11 to 100 | 10 | 
6 | CC(C)(c1ccc(OCc2cccc(C(O)C3CC3)n2)cc1)c1ccc(O[C@H]2C[C@H](Nc3ccc4c(c3)C(=O)N(C3CCC(=O)NC3=O)C4=O)C2)cc1 (stereo partly drawn) [Example 116, 5-(((trans)-3-(4-(2-(4-((6-(cyclopropyl(hydroxyl)methyl)pyridin-2-yl)methoxy)phenyl)propan-2-yl)phenoxy)cyclobutyl)amino)-2-(2,6-dioxopiperidin-3-yl)isoindolin-1,3-dione] | < 10 | 17 | 
7 | CN1CCN(C(=O)c2noc(COc3ccc(C(C)(C)c4ccc(OCCCNc5ccc6c(c5)C(=O)N(C5CCC(=O)NC5=O)C6=O)cc4)cc3)n2)CC1 (stereo not shown) [Example 141] | 11 to 100 | 85 | 
8 | CC(=O)c1nccc(COc2ccc(C(C)(C)c3ccc(OC[C@@H]4CCN4c4ccc5c(c4)C(=O)N(C4CCC(=O)NC4=O)C5=O)cc3)cc2)n1 (stereo partly drawn) [Example 308, 5-((S)-2-((4-(2-(4-((2-acetylpyrimidin-4-yl)methoxy)phenyl)propan-2-yl)phenoxy)methyl)azetidin-1-yl)-2-(2,6-dioxopiperidin-3-yl)isoindolin-1,3-dione] | 11 to 100 | 19 | 
9 | CC(C)(c1ccc(Oc2cc(-n3ccnn3)ccn2)cc1)c1ccc(O[C@H]2C[C@H](Nc3ccc4c(c3)C(=O)N(C3CCC(=O)NC3=O)C4=O)C2)cc1 (stereo partly shown) [Example 169] | < 10 | 10 | 
10 | Cc1nc(-c2ccnc(Oc3ccc(C(C)(C)c4ccc(O[C@H]5C[C@@H](Nc6ccc7c(c6)C(=O)N(C6CCC(=O)NC6=O)C7=O)C5)cc4)cc3)n2)no1 (stereo partly shown) [Example 173, 2-(2,6-dioxopiperidin-3-yl)-5-(((1s,3s)-3-(4-(2-(4-((4-(5-methyl-1,2,4-oxadiazol-3-yl)pyrimidin-2-yl)oxy)phenyl)propan-2-yl)phenoxy)cyclobutyl)amino)isoindolin-1,3-dione] | 11 to 100 | 13 | 
11 | CC(C)(c1ccc(OCCCNc2ccc3c(c2)C(=O)N(C2CCC(=O)NC2=O)C3=O)cc1)c1ccc(OCc2ccnc(NC3CC3)n2)cc1 (stereo not shown) [Example 444, 5-((3-(4-(2-(4-((2-(cyclopropylamino)pyrimidin-4-yl)methoxy)phenyl)propan-2-yl)phenoxy)propyl)amino)-2-(2,6-dioxopiperidin-3-yl)isoindolin-1,3-dione] | 11 to 100 | 62 | 
12 | CC(=O)c1ccc(Oc2ccc(C(C)(C)c3ccc(O[C@H]4C[C@@H](Nc5ccc6c(c5)C(=O)N(C5CCC(=O)NC5=O)C6=O)C4)cc3)cc2)cn1 (stereo partly shown) [Example 525] | 11 to 100 | 8 | 
13 | CC(=O)c1ncc(Oc2ccc(C(C)(C)c3ccc(O[C@H]4C[C@@H](Nc5ccc6c(c5)C(=O)N(C5CCC(=O)NC5=O)C6=O)C4)cc3)cc2)cn1 (stereo partly drawn) [Example 128, 5-(((cis)-3-(4-(2-(4-((2-acetylpyrimidin-5-yl)oxy)phenyl)propan-2-yl)phenoxy)cyclobutyl)amino)-2-(2,6-dioxopiperidin-3-yl)isoindolin-1,3-dione] | 11 to 100 | 7 | 
14 | Cc1nc(-c2ccc(Oc3ccc(C(C)(C)c4ccc(O[C@H]5C[C@H](Nc6ccc7c(c6)C(=O)N(C6CCC(=O)NC6=O)C7=O)C5)cc4)cc3)cn2)no1 (stereo partly shown) [Example 581] | < 10 | 10 | 

Other lines, results leading:

Row | DC50 [1] [nM] | IC50 (22RV1 cells) [nM] | pIC50 (22RV1 cells; read-out: 22RV1 IC50, 22RV1 cells, 6 days culture, CCK-8, OD 450 nm) | Compound
15 | < 10 | 8 |  | CC(C)(c1ccc(OCc2cccc(-n3nccn3)n2)cc1)c1ccc(O[C@H]2C[C@H](Nc3ccc4c(c3)C(=O)N(C3CCC(=O)NC3=O)C4=O)C2)cc1 (stereo partly shown) [Example 419]
16 | < 10 |  | 8.05 | CC(C)(c1ccc(OCc2ccnc(N3CC[C@H](O)C3)n2)cc1)c1ccc(OC2CC(Nc3ccc4c(c3)C(=O)N(C3CCC(=O)NC3=O)C4=O)C2)cc1 (stereo partly shown) [Example 398]
17 | < 10 | 11 |  | CC(C)(c1ccc(OCc2ccnc(N3CCNCC3)n2)cc1)c1ccc(OC2CC(Nc3ccc4c(c3)C(=O)N(C3CCC(=O)NC3=O)C4=O)C2)cc1 (stereo not shown) [Example 451, 2-(2,6-dioxopiperidin-3-yl)-5-((3-(4-(2-(4-((2-(piperazin-1-yl)pyrimidin-4-yl)methoxy)phenyl)propan-2-yl)phenoxy)cyclobutyl)amino)isoindolin-1,3-dione]
18 | < 10 | 16 |  | CC(C)(c1ccc(OCc2ccnc(N3CCC[C@H](O)C3)n2)cc1)c1ccc(O[C@H]2C[C@@H](Nc3ccc4c(c3)C(=O)N(C3CCC(=O)NC3=O)C4=O)C2)cc1 (stereo partly shown) [Example 399]
19 | < 10 | 6 |  | CC(c1nccc(COc2ccc(C(C)(C)c3ccc(O[C@H]4C[C@H](Nc5ccc6c(c5)C(=O)N(C5CCC(=O)NC5=O)C6=O)C4)cc3)cc2)n1)N1CCC1 (stereo partly shown) [Example 249]
20 | 11 to 100 | 11 |  | CC1CN(c2nccc(COc3ccc(C(C)(C)c4ccc(OC5CC(Nc6ccc7c(c6)C(=O)N(C6CCC(=O)NC6=O)C7=O)C5)cc4)cc3)n2)CCN1C (stereo not shown) [Example 448]
21 | < 10 | 6 |  | CC(C)(c1ccc(OCc2ccnc(N3CC(N4CCC4)C3)n2)cc1)c1ccc(O[C@H]2C[C@@H](Nc3ccc4c(c3)C(=O)N(C3CCC(=O)NC3=O)C4=O)C2)cc1 (stereo partly shown) [Example 410]
22 | < 10 | 9 |  | CC(C)(c1ccc(OCc2ccnc(-n3ccnn3)n2)cc1)c1ccc(O[C@H]2C[C@H](Nc3ccc4c(c3)C(=O)N(C3CCC(=O)NC3=O)C4=O)C2)cc1 (stereo partly shown) [Example 230]
23 | < 10 | 7 |  | CC(O)c1nccc(COc2ccc(C(C)(C)c3ccc(O[C@H]4C[C@@H](Nc5ccc6c(c5)C(=O)N(C5CCC(=O)NC5=O)C6=O)C4)cc3)cc2)n1 (stereo partly shown) [Example 492]

Reference: patent US20250051347A1, “BIFUNCTIONAL CHIMERIC HETEROCYCLIC COMPOUND AND USE THEREOF AS ANDROGEN RECEPTOR DEGRADER” (Hinova Pharmaceuticals, Inc., priority 2021, published 2025)
